In data set [1] the test system is human colon cancer HT-29 cells. In words: MTT assay of cell growth, HT-29. The format is cell-based. To be noted: HT-29, days 1-3, MTT. As to the method:
Two human colon cancer cell lines, Colo-205 (ATCC accession No. CCL-222) and HT-29 (ATCC accession No. HTB-38), were used in this study. Cells were treated with 0.2, 0.76, 1.52, 7.62, 15.24, 22.87, 30.49, 38.11, 45.73 or 53.35 μM 10-HCPT or CPT-11 for 1-3 days, and the relative number of the viable cells was determined by MTT assay as described below.
Cells were seeded in a 24-well cell culture cluster (Costar, Cambridge, Mass.) at a density of 1×10^6 cells per mL and cultured overnight prior to drug treatment. After 10-HCPT or CPT-11 treatment for 3 days, the medium was discarded and replaced with an equal volume (0.5 mL) of fresh medium containing 0.456 mg/mL 3-[4,5-dimethylthiazol-2-yl]-2,5-diphenyl-tetrazolium bromide (MTT; Sigma Chemical Company) and incubated for 2 hours at 37° C. in the dark. The medium was discarded, and cells were then combined with […] dimethyl sulfoxide (Sigma Chemical Company) to dissolve the formazan produced. Cell viability was determined according to the calorimetric comparison by reading optical density (OD) values from a microplate reader (Spectra Max 250; Spectra Diode Laboratories, CA) at an absorption wavelength of 570 nm.

For data set [2], the system named is Colo-205 cells. Description: Viable cell number by trypan blue exclusion assay. The format is cell-based, human. To be noted: 5, 10, 15 or 20 nM, 24 to 120 hr, vs untreated cells. As to the method: To investigate the effect of 10-HCPT on the growth of Colo-205 cell line, the cells were treated with a series of dosages of 10-HCPT and harvested at different time points. The cell numbers were determined by trypan blue exclusion assay as described below.
Colo-205 cells (5×10^5) were seeded in 25T flasks overnight and then treated without (control) and with 5, 10, 15, or 20 nM of 10-HCPT, respectively. After treatment for 24 to 120 hr, cells were harvested by trypsin-EDTA and then centrifuged at 1500 rpm for 5 min at 4° C. The cell pellet was resuspended in culture medium containing 0.04% trypan blue and the viable cells were enumerated by a hemocytometer.

Data set [3] in a line: Toxicity in xenograft-bearing nude mice (body weight, pathology). The data set is classed as in vivo. As to the method:
10-HCPT was dissolved in propylene glycol and treatment began when the tumor size reached 3-5 mm. 10-HCPT was administered via p.o. once per two or four days at doses of 1-7.5 mg/kg (volume of injection: 0.1 mL/20 g of body weight), respectively. The control group received propylene glycol vehicle once per two days. Tumor size and body weight were monitored twice a week throughout the experiment. The tumor size was measured using a vernier caliper. Tumor volume (V) was calculated according to the formula: V (mm^3)=0.4AB^2, where A and B are the longest diameter and the shortest diameter, respectively. At the end of experiment, all mice were sacrificed by CO2 gas. Tumors, livers, kidneys, and lungs were collected, fixed, embedded and stained with hematoxylin and eosin for pathological analysis.

In another data set the test system is human Hep G2 cells. Particulars: cited from earlier work.
The conditions of data set [4]: cited from earlier work.
For data set [5], the system named is Colo-205 cells. In words: Cell cycle distribution by propidium iodide staining and flow cytometry. The data set is classed as cell-based, human. To be noted: various concentrations, 48 hrs. As to the method: We further investigated if the suppression of cell growth induced by 10-HCPT on Colo-205 was due to either cell cycle arrest or cell death. The Colo-205 cells were treated with various concentrations of 10-HCPT for 48 hrs and analyzed by propidium iodide staining and flow cytometry as described below.
After treatment with 10-HCPT, cells were trypsinized and resuspended in 70% ethanol. The cells were incubated on ice for at least 1 hr and resuspended in 1 mL of cell cycle assay buffer (0.38 mM sodium citrate, 0.5 mg/mL RNase A, and 0.01 mg/mL propidium iodide) at a concentration of 5×10^5 cells/mL. Samples were stored in the dark at 4° C. until cell cycle analysis, which was carried out by use of a flow cytometer and ModFit LT 2.0 software (Verity Software, Topsham, Me.).
A FACScan flow cytometer (Becton Dickinson, Bedford, Mass.) equipped with a 488-nm argon laser was used for analysis of cellular function by flow cytometry. Forward and side scatters were used to establish size gates and exclude cellular debris from the analysis. The excitation wavelength was set at 488 nm. The observation wavelength of 530 nm was chosen for green fluorescence and 585 nm for red fluorescence and the intensities of emitted fluorescence were collected on FL1 and FL2 channels, respectively. In each measurement, a minimum of 20,000 cells was analyzed. Data were acquired and analyzed using the Cell Quest software (Becton Dickinson). Relative change in the mean fluorescence intensity was calculated as the ratio between mean fluorescence intensity in the channel of the treated cells and that of the control.
For orientation: In flow cytometry, cells or beads pass a laser one at a time.

The next data set has as its system caspase-3. In words: DEVD-pNA cleavage activity (Caspase-3 Colorimetric Assay Kit). The data set is classed as cell-based, human. To be noted: Colo-205 lysates, 48 hrs treatment, vs drug-free control. The method, then:
In addition, to further determine whether caspases participate in the propagation of apoptosis induced by 10-HCPT in Colo-205 cells, cell lysates from drug-treated cells were analyzed for the cleavage of the p-nitroaniline-tagged peptides N-Acetyl-Asp-Glu-Val-Aps-pNA (DEVD-pNA), which represent preferential substrates for caspase-3. Caspase activation leads to the release of pNA that can be monitored by absorbance measurements at 405 nm using a plate reader. Specifically, DEVD-pNA cleavage activity was measured using Caspase-3 Colorimetric Assay Kit (BioVision) according to the recommended protocols. 3×10^6 of 10-HCPT treated cells were harvested, resuspended in 50 μl of chilled cell lysis buffer and incubated on ice for 10 min before centrifugation (12,000 rpm for 3 min at 4° C.). The supernatant was collected and the total protein concentration of the supernatant was determined by Dc protein assay kit (Bio-Rad). Each assay reaction containing 100 μg of cell lysates, 50 μl of 2× reaction buffer supplemented with 10 mM DTT, and 5 μl of the 4 mM of DEVD-pNA (200 μM final concentration) was carried out at 37° C. for 1 hr. The formation of p-nitroanilide was detected at 405 nm in a microtiter plate reader.

The next data set concerns histone H1 and H3. Particulars: murine hepatoma cells; cited from earlier work.
The mark [6] stands for this setting: previous pharmacokinetic studies.

With `CC[C@@]1(O)C(=O)OCc2c1cc1n(c2=O)Cc2cc3cc(O)ccc3nc2-1` [10-HCPT, 10-hydroxy-camptothecin], the “concentration at which complete growth inhibition was observed” value in data set [1] turned out to be 0.5 µM. Also, the “effect on cell number increase” value in the data set on Colo-205 cells [2] is recorded as “suppression of cell number increasing in dose-dependent manner”. In data set [3] (7.5 mg/kg/2 days-treated group, end of study), the average body weight entry is “slightly recovered”. Besides, in data set [3] (1-7.5 mg/kg, p.o., once per two or four days, nude mice), the acute toxicity entry was “no obvious acute toxicity”. Also, the body weight result in data set [3] (all treated groups except the 7.5 mg/kg/2 days-treated group) is “No significant reduction in body weight”. In addition, the “tissue damage in liver, lung and kidney” value in data set [3] (tissue slices stained with hematoxylin and eosin) was “no tissue damage was observed”. Also, the effect on differentiation result in the data set with human Hep G2 cells is “differentiation inducing effect”. Besides, the “toxicity with i.v. administration” value in data set [4] (i.v.) is “Dose-dependent toxicity was observed”. Also, in data set [4] (setting [6]), the distribution half-life result was “short” and the elimination half-life entry is “prolonged”. In the data set with Colo-205 cells [5], the “cell populations in G0/G1 phase” value was “decreasing”, the “cell populations in G2/M phase” value was “induced dramatically the increasing” and the “population in sub G0/G1 phase” value is “increasing population”. Further, the “S phase of cell cycle” value with Colo-205 cells [5] (vs untreated) is “no significant differences”. In the data set with caspase-3, the “absorbance with the DEVD-pNA substrate” value was “clearly elevated”. The “effect on phosphorylation of histone H1 and H3” value with histone H1 and H3 is “inhibitory effect”.

The values are drawn from patent US20080039485A1, “LOW-DOSE-LONG-TERM PHARMACEUTICAL COMPOSITION COMPRISING CAMPTOTHECIN DERIVATIVES FOR THE TREATMENT OF CANCERS” (TARGETGEN BIOTECHNOLOGY CO., LTD., priority 2006, published 2008).
